How the values were obtained:
[1] = test system: leukemia L1210 cell line; test: Antitumor activity bioassay against leukemia L1210, T/C (%) at given dosage; type: in vivo
[2] = test system: leukemia L1210 cell line; test: Antitumor activity bioassay against leukemia L1210 cell line (IC50); type: cell-based
Procedure: Antitumor activities of the platinum complexes prepared in the above Examples 1 to 9 were assayed against the leukemia L1210 cell line according to the known method (S. S. Lee, O.-S. Jung, C. O. Lee, S. U. Choi, M.-J. Jun, Y. S. Sohn, Inorg. Chim. Acta, 239, 133 (1995)), and the results are shown in Table 1.

Compound	T/C (%) ([1]; dosage amount 20 mg/kg)	T/C (%) ([1]; dosage amount 40 mg/kg)	IC50 [2]	T/C (%) ([1]; dosage amount 4 mg/kg)
Cc1ccc(S(=O)(=O)N[C@@H](CCC(=O)[O-])C(=O)[O-])cc1.N[C@@H]1CCCC[C@H]1N.[Pt+2] (racemic) [Pt(dach)(TsGlu), (N-tosyl-L-glutamato-O,O)(trans-(±)-1,2-diaminocyclo-hexane-N,N)platinum(II)]	176.3%	191.3%	17.6 µM	
CC(=O)N[C@@H](CCC(=O)[O-])C(=O)[O-].N[C@@H]1CCCC[C@H]1N.[Pt+2] (racemic) [Pt(dach)(AcGlu), (N-acetyl-L-glutamato-O,O)(trans-(±)-1,2-diaminocyclo-hexane-N,N)platinum(II) complex]	227.3%	190.9%	4.63 µM	
N[C@@H]1CCCC[C@H]1N.O=C([O-])CC[C@@H](C(=O)[O-])N1C(=O)c2ccccc2C1=O.[Pt+2] (racemic) [Pt(dach)(PhthGlu), (N-phthaloyl-L-glutamato-O,O)(trans-(±)-1,2-diaminocyclo-hexane-N,N)platinum(II)]	177.3%	221.6%	34.9 µM	
N.N.O=C([O-])C1(C(=O)[O-])CCC1.[Pt+2] [Carboplatin, reference compound]		168/40%	10.2 µM	
CC(C)(C)C(=O)N[C@@H](CCC(=O)[O-])C(=O)[O-].N[C@@H]1CCCC[C@H]1N.[Pt+2] (racemic) [Pt(dach)(PivGlu), (N-pivalyl-L-glutamato-O,O)(trans-(±)-1,2-diaminocyclo-hexane-N,N)platinum(II)]	211.3%	212.5%	2.23 µM	
N.N.[Cl][Pt][Cl] [Cisplatin, reference compound]			1 µM	184/4%
(N-acetyl-L-aspartato-O,O)(trans-(±)-1,2-diaminocyclo-hexane-N,N)platinum(II) [Pt(dach)(AcAsp)]	179.6%	225.0%	3.73 µM	
N[C@@H]1CCCC[C@H]1N.O=C([O-])CC[C@H](NC(=O)OCc1ccccc1)C(=O)[O-].[Pt+2] (racemic) [Pt(dach)(CbzGlu), (N-carbobenzyloxy-L-glutamato-O,O)(trans-(±)-1,2-diaminocyclohexane-N,N)platinum(II)]	170.0%	207.5%	65.1 µM	
CCC(=O)N[C@@H](CCC(=O)[O-])C(=O)[O-].N[C@@H]1CCCC[C@H]1N.[Pt+2] (racemic) [Pt(dach)(ProGlu), (N-propionyl-L-glutamato-O,O)(trans-(±)-1,2-diaminocyclo-exane-N,N)platinum(II)]	212.5%	228.8%	2.94 µM	
N[C@@H]1CCCC[C@H]1N.O=C([O-])C[C@H](NC(=O)OCc1ccccc1)C(=O)[O-].[Pt+2] (racemic) [Pt(dach)(CbzAsp), (N-carbobenzyloxy-L-aspartato-O,O)(trans-(±)-1,2-diamino-cyclohexane-N,N)platinum(II)]	175.0%	193.8%	26.5 µM	
CC(=O)N[C@@H](CC(=O)[O-])C(=O)[O-].CC(C)(CN)CN.[Pt+2] [Pt(dmpda)(AcAsp), (N-acetyl-L-aspartato-O,O)(2,2-dimethyl-1,3-propane-diamine-N,N)platinum(II)]	146.2%	160.4%	3.19 µM	

Source: patent publication US6867316B2, “Platinum(II) complexes of N-substituted amino dicarboxylates and the preparation method thereof” (Board of Trustees, Ewha Womans University, priority 2003, dated 2005)
